Experimental data: US10383894B2, “Human medicinal treatment using salt of peroxymonosulfuric acid” (LuTran Industries, Inc., priority 2010, dated 2019)

What was measured:
Assay type in all cases: in vivo, human
bronchitis = test: Treatment of persons with bronchitis with the Medicine (Examples 12-14); conditions: Example 13: prior treatment, no dose given
Text: (§1) Given below are examples of using the medicinal drug of type I/II for treating allergic rhinitis, osteoarthritis, gouty arthritis, bronchitis, hemorrhoids, urticaria, toothache, tinea pedis, acute viral nasopharyngitis, herpes simplex, dandruff, itching, bromhidrosis, and vaginitis. The formulation of the drug of type I/II used in these examples was the preferred formulation, mentioned above, in which the drug was formed with potassium hydrogen peroxymonosulfate as the active oxygen-releasing material, sodium chloride as the inorganic halide, sodium hexametaphosphate as the alkali metal phosphate, sulfamic acid, malic acid as the non-reducing organic acid, and sodium dodecylbenzene sulfonate as the surfactant at approximately the typical mass percentages mentioned above. A formulation approximating this formulation is commercially available in the product Virkon. This formulation of the drug of type I/II is referred to below as the “Medicine”. […]

gouty arthritis = test: Treatment of persons with gouty arthritis with the Medicine (Examples 9-11); conditions: no dose given; for patient-reported outcome of previously tried treatments: Example 11: prior treatment
Text: Given below are examples of using the medicinal drug of type I/II for treating allergic rhinitis, osteoarthritis, gouty arthritis, bronchitis, hemorrhoids, urticaria, toothache, tinea pedis, acute viral nasopharyngitis, herpes simplex, dandruff, itching, bromhidrosis, and vaginitis. The formulation of the drug of type I/II used in these examples was the preferred formulation, mentioned above, in which the drug was formed with potassium hydrogen peroxymonosulfate as the active oxygen-releasing material, sodium chloride as the inorganic halide, sodium hexametaphosphate as the alkali metal phosphate, sulfamic acid, malic acid as the non-reducing organic acid, and sodium dodecylbenzene sulfonate as the surfactant at approximately the typical mass percentages mentioned above. A formulation approximating this formulation is commercially available in the product Virkon. This formulation of the drug of type I/II is referred to below as the “Medicine”.
The Medicine for each person infected with allergic rhinitis, osteoarthritis, gouty arthritis, bronchitis, hemorrhoids, urticaria, toothache, tinea pedis, acute viral nasopharyngitis, herpes simplex, dandruff, itching, bromhidrosis, and vaginitis is provided for topical, intranasal, oral, or/and injection administration 1-12 times per day, preferably 1-8 times per day, more preferably 1-6 times per day, typically 1-4 times per day, in liquid form at a dosage of 0.00001-5%, preferably 0.001-3%, more preferably 0.1-2%, typically 0.5-1%, for a time of contact of 1 minute-12 hours, preferably 1 minute-6 hours, more preferably 1 minute-2 hours, typically 1-30 minutes . The treatment period in each in each of the following examples is normally 1-12 months, preferably 1-6 months, more preferably 1-3 months, typically 1-30 days.
A retired adult had gouty arthritis for 10 years. The […] reported that they were in excruciating pain on random days and that previously attempted treatments for the pain were unsuccessful. […]

osteoarthritis = test: Treatment of persons with osteoarthritis with the Medicine (Examples 6-8); conditions: Example 6: prior treatment, no dose given
Text: as §1

vaginitis = test: Treatment of persons with vaginitis with the Medicine (Examples 48-50); conditions: no dose given
Text: as §1

itching = test: Treatment of persons with itching with the Medicine (Examples 41-43); conditions: no dose given
Text: as §1

dandruff = test: Treatment of persons with dandruff with the Medicine (Examples 37-40); conditions: Example 37: prior treatment, (some of) these decreased the amount of dandruff
Text: Given below are examples of using the medicinal drug of type I/II for treating allergic rhinitis, osteoarthritis, gouty arthritis, bronchitis, hemorrhoids, urticaria, toothache, tinea pedis, acute viral nasopharyngitis, herpes simplex, dandruff, itching, bromhidrosis, and vaginitis. […] A formulation approximating this formulation is commercially available in the product Virkon. This formulation of the drug of type I/II is referred to below as the “Medicine”.
The Medicine was provided to […] as a 1% solution for topical administration by scrubbing the Medicine into their scalp and hair for 5 minutes and then washing their scalp and hair. The […] reported that they administered the Medicine to themself in the foregoing manner 4 times a week for 2 weeks.

[1] = test system: acute viral nasopharyngitis; test: Treatment of persons with acute viral nasopharyngitis with the Medicine (Examples 28-32); conditions: Example 30: prior treatment, no dose given

## COc1ccc2c3c1O[C@H]1[C@@H](O)C=C[C@H]4[C@@H](C2)N(C)CC[C@@]341 [codeine]
bronchitis
  patient-reported outcome of previously tried treatments for bronchitis: little success

## COc1cc2c(c(OC)c1OC)-c1ccc(OC)c(=O)cc1[C@@H](NC(C)=O)CC2 [colchicines, colchicine]
Gouty arthritis
  patient-reported outcome of previously tried treatments: without significant success

## N[C@H]1C(O)O[C@H](CO)[C@@H](O)[C@@H]1O (some centres unmarked) [glucosamine]
osteoarthritis
  patient-reported outcome of previously tried treatments for osteoarthritis: without effective relief

## C[C@]12CCC(=O)C=C1CC[C@@H]1[C@@H]2[C@@H](O)C[C@@]2(C)[C@H]1CC[C@]2(O)C(=O)CO [hydrocortisone]
vaginitis; Example 48: prior treatment
  patient-reported outcome of previously tried treatments for vaginitis: without significant success
vaginitis; Example 50: prior treatment
  patient-reported outcome of previously tried treatments for vaginitis: to no avail
itching; Example 42: prior treatment
  patient-reported outcome of previously tried treatments for itching: without success
itching; Example 43: prior treatment
  patient-reported outcome of previously tried treatments for itching: little success

## CC(C)Cc1ccc(C(C)C(=O)O)cc1 (centres unmarked) [ibuprofen]
Gouty arthritis; Example 10: prior treatment
  patient-reported outcome of previously tried treatment for gouty arthritis: no significant success
Gouty arthritis
  patient-reported outcome of previously tried treatments: without significant success

## CC(=O)N1CCN(c2ccc(OCC3COC(Cn4ccnc4)(c4ccc(Cl)cc4Cl)O3)cc2)CC1 (centres unmarked) [ketoconazole]
dandruff
  patient-reported outcome of previously tried treatments for dandruff: dandruff was still visible on their scalp

## CC(=O)Nc1ccc(O)cc1 [paracetamol]
[1]
  patient-reported outcome of previously tried treatments for acute viral nasopharyngitis: little success

## CN[C@@H](C)[C@@H](O)c1ccccc1 [pseudoephedrine]
[1]
  patient-reported outcome of previously tried treatments for acute viral nasopharyngitis: little success

## S=[Se]=S [selenium sulfide]
dandruff
  patient-reported outcome of previously tried treatments for dandruff: dandruff was still visible on their scalp

## zinc pyrithione
dandruff
  patient-reported outcome of previously tried treatments for dandruff: dandruff was still visible on their scalp
